Peptide text beside a SMILES is read from it.
What was measured:
Escherichia coli = assay: Antimicrobial activity against Escherichia coli assessed as inhibition of microbial growth incubated for 26 hrs by micro-dilution test; format: functional
[1] = Hemolytic activity in rabbit RBC assessed as hemolysis at 100 uM incubated for 6 hrs by Uv-vis spectrophotometric analysis; format: toxicity, cell-based, Oryctolagus cuniculus; conditions: erythrocyte
[2] = Hemolytic activity in human erythrocytes assessed as hemolysis at 1 uM incubated for 1 hrs by spectrophotometric analysis relative to control; format: toxicity, cell-based, Erythrocyte; conditions: read-out: Activity

CC1(C)S[C@@H]2[C@H](NC(=O)[C@H](N)c3ccccc3)C(=O)N2[C@H]1C(=O)O [AMPICILLIN] gave an MIC (Escherichia coli) of 6.25 µg/mL.

In the case of CC(C)C[C@H](NC(=O)[C@H](CC(N)=O)NC(=O)[C@H](CCCCN)NC(=O)[C@H](CC(C)C)NC(=O)[C@@H](NC(=O)[C@H](CCCCN)NC(=O)[C@H](Cc1ccccc1)NC(=O)CN)[C@@H](C)O)C(=O)N[C@@H](C)C(=O)N[C@@H](CCCCN)C(=O)N[C@@H](CCCCN)C(=O)N[C@H](C(=O)N[C@@H](C)C(=O)N[C@@H](CCCCN)C(=O)N[C@@H](CCCCN)C(=O)N[C@H](C(=O)N[C@@H](CC(C)C)C(=O)N[C@@H](CCCCN)C(=O)N[C@@H](C)C(=O)N[C@H](C(=O)N[C@@H](CCCNC(=N)N)C(=O)O)C(C)C)C(C)C)C(C)C (H-GFKTLKNLAKKVAKKVLKAVR-OH), the MIC (Escherichia coli) is reported as 6.25 µg/mL and the Activity [1] is reported as “Non-Toxic”.

With CC[C@H](C)[C@H](NC(=O)CN)C(=O)NCC(=O)N[C@@H](C)C(=O)N[C@H](C(=O)N[C@@H](CC(C)C)C(=O)N[C@@H](CCCCN)C(=O)N[C@H](C(=O)N[C@@H](CC(C)C)C(=O)N[C@H](C(=O)N[C@H](C(=O)NCC(=O)N[C@@H](CC(C)C)C(=O)N1CCC[C@H]1C(=O)N[C@@H](C)C(=O)N[C@@H](CC(C)C)C(=O)N[C@H](C(=O)N[C@@H](CO)C(=O)N[C@@H](Cc1c[nH]c2ccccc12)C(=O)N[C@H](C(=O)N[C@@H](CCCCN)C(=O)N[C@@H](CCCNC(=N)N)C(=O)N[C@@H](CCCCN)C(=O)N[C@@H](CCCNC(=N)N)C(=O)N[C@@H](CCC(N)=O)C(=O)N[C@@H](CCC(N)=O)C(N)=O)[C@@H](C)CC)[C@@H](C)CC)[C@@H](C)O)[C@@H](C)O)C(C)C)C(C)C [MELITTIN] the hemolysis at 1 h, 1 µM [2] was 90%.

In the case of CC[C@H](C)[C@H](NC(=O)CNC(=O)[C@H](CCCCN)NC(=O)[C@H](C)NC(=O)[C@@H](NC(=O)[C@H](CCCCN)NC(=O)[C@H](CCCCN)NC(=O)[C@H](CC(C)C)NC(=O)[C@@H](NC(=O)[C@@H](NC(=O)[C@@H](NC(=O)[C@H](CC(C)C)NC(=O)CN)C(C)C)[C@@H](C)O)C(C)C)C(C)C)C(=O)N[C@H](C(=O)N[C@@H](CCCCN)C(=O)N[C@H](C(=O)N[C@@H](C)C(=O)N[C@@H](CO)C(=O)N[C@@H](CCCCN)C(=O)N[C@H](C(=O)NCC(=O)N[C@@H](CO)C(=O)N[C@@H](CCCCN)C(=O)N[C@@H](CCC(=O)O)C(=O)N[C@@H](CC(C)C)C(=O)O)C(C)C)[C@@H](C)O)C(C)C (H-GLVTVLKKVAKGIVKTASKVGSKEL-OH), the MIC (Escherichia coli) is reported as > 100 µg/mL.
